Converted amounts (≈) assume the structure as drawn. Like-named read-outs stand apart in the source and are kept apart here.
What was measured:
Format in all cases: cell-based
Micrococcus luteus = experiment: MIC, agar dilution, Micrococcus luteus; details: Micrococcus luteus; strain UC130; read-out: MIC
Method: (§1) Stock solution of each test antibiotic compound were prepared to have a concentration of 2 mg. of the test compound per milliliter in sterile water of 0.1M ammonium acetate solution. The amount of each compound used was adjusted for base compound activity as calculated from the purity data for the selected batch of compound.
(§2) The dilution procedure described by Washington and Sutter [Manual of Clinical Microbiology, 3rd, Edit. (Lennett, E. H. et al, Eds.), pp. 453-458 (1980), American Society for Microbiology, Washington, D.C.] was modified so that serial concentrations of 128 to 0.0625 microgram/ml. in sterile water was obtained. Then 1.5 ml. aliquots of these test antibiotic dilution mixtures are added to 13.5 molten (50° C.) Mueller-Hinton agar. Each resulting mixture is poured into 15×100 mm, sterile Petri plates and allowed to dry at room temperature overnight.
(§3) Test bacterial cultures are maintained at -70° C. on glass beads. [See R. J. Yancey, Jr. et al, Amer. Jr. of Vet. Research, 48, No. 7, pp. 1050-1053, (1987)]. At least one bacteria-laden bead per culture is dropped into one ml. of brain heart infusion (BHI) broth for overnight culture at 37° C. in 5% V/V carbon dioxide in air atmosphere.
(§4) On the data of assay, 2 to 8 drops of the bacterial broth cultures are transferred to fresh BHI broth (1 ml.) and the mixture is incubated for 4 to 6 hours at 37° C. in a 5% V/V carbon dioxide in air atmosphere. The resulting cultures are then diluted to match a 0.5 MacFarland standard and further diluted 1:20 V/V with sterile saline solution.
(§5) A 0.001 ml. drop of the resulting mixture, containing approximately 10^3 to 10^4 colony forming units (CFU) of each test bacteria organism, is dispensed onto the surface of the test antibiotic compound test plates with a Steer's type replicator. The resulting innoculated plates are incubated 16 to 18 hours at 37° C. with a carbon dioxide atmosphere.
as §1, with “Stock solutions” for “Stock solution”
as §2, with “mm.” for “mm,”
as §2, with “for Microbiology.” for “for Microbiology,”, “15×100 mm.” for “15×100 mm,”
as §3, with “culture” for “cultures”
(§6) On the day of assay, 2 to 8 drops of the bacterial broth cultures are transferred to fresh BHI broth (1 ml.) and the mixture is incubated for 4 to 6 hours at 37° C. in a 5% V/V carbon dioxide in air atmosphere. […]

Corynebacterium pyogenes = experiment: MIC, agar dilution, Corynebacterium pyogenes; details: strain 213-2; read-out: MIC
Method: as §1, §2, §3, §4, §5
as §1, with “Stock solutions” for “Stock solution”
as §2, with “mm.” for “mm,”
as §2, with “for Microbiology.” for “for Microbiology,”, “15×100 mm.” for “15×100 mm,”
as §3, with “culture” for “cultures”
as §6

Staphylococcus aureus = experiment: MIC, agar dilution, Staphylococcus aureus; details: Staphylococcus aureus, read-out: MIC
Method: as §1, §2, §3, §4, §5
as §1, with “Stock solutions” for “Stock solution”
as §2, with “mm.” for “mm,”
as §2, with “for Microbiology.” for “for Microbiology,”, “15×100 mm.” for “15×100 mm,”
as §3, with “culture” for “cultures”
as §6

Salmonella typhimurium = experiment: MIC, agar dilution, Salmonella typhimurium; details: Salmonella enterica, read-out: MIC
Method: as §1, §2, §3, §4, §5
as §1, with “Stock solutions” for “Stock solution”
as §2, with “mm.” for “mm,”
as §2, with “for Microbiology.” for “for Microbiology,”, “15×100 mm.” for “15×100 mm,”
as §3, with “culture” for “cultures”
as §6

Escherichia coli = experiment: MIC, agar dilution, Escherichia coli; details: Escherichia coli, read-out: MIC
Method: as §1, §2, §3, §4, §5
as §1, with “Stock solutions” for “Stock solution”
as §2, with “mm.” for “mm,”
as §2, with “for Microbiology.” for “for Microbiology,”, “15×100 mm.” for “15×100 mm,”
as §3, with “culture” for “cultures”
as §6

Pseudomonas aeruginosa = experiment: MIC, agar dilution, Pseudomonas aeruginosa; details: Pseudomonas aeruginosa, ATCC27853; strain ATCC 27853; read-out: MIC
Method: as §1, §2, §3, §4, §5
as §1, with “Stock solutions” for “Stock solution”
as §2, with “mm.” for “mm,”
as §2, with “for Microbiology.” for “for Microbiology,”, “15×100 mm.” for “15×100 mm,”
as §3, with “culture” for “cultures”
as §6

Streptococcus suis = experiment: MIC, agar dilution, Streptococcus suis; details: Streptococcus suis; strain 650-2; read-out: MIC
Method: as §1, §2, §3, §4, §5
as §1, with “Stock solutions” for “Stock solution”
as §2, with “mm.” for “mm,”
as §2, with “for Microbiology.” for “for Microbiology,”, “15×100 mm.” for “15×100 mm,”
as §3, with “culture” for “cultures”
as §6

Pasteurella multocida = experiment: MIC, agar dilution, Pasteurella multocida; details: Pasteurella multocida; strain UC9581; read-out: MIC
Method: as §1, §2, §3, §4, §5
as §1, with “Stock solutions” for “Stock solution”
as §2, with “mm.” for “mm,”
as §2, with “for Microbiology.” for “for Microbiology,”, “15×100 mm.” for “15×100 mm,”
as §3, with “culture” for “cultures”
as §6

Pasteurella hemolytica = experiment: MIC (minimum inhibitory concentration), agar dilution, Pasteurella hemolytica; details: Pasteurella, read-out: MIC
Method: as §1, §2, §3, §4, §5
as §1, with “Stock solutions” for “Stock solution”
as §2, with “mm.” for “mm,”
as §2, with “for Microbiology.” for “for Microbiology,”, “15×100 mm.” for “15×100 mm,”
as §3, with “culture” for “cultures”
as §6

Enterococcus faecalis = experiment: MIC, agar dilution, Enterococcus faecalis; details: Enterococcus faecalis; strain UC694; read-out: MIC
Method: as §1, with “Stock solutions” for “Stock solution”
as §2, §3, §4, §5, §1
as §2, with “mm.” for “mm,”
as §2, with “for Microbiology.” for “for Microbiology,”, “15×100 mm.” for “15×100 mm,”
as §3, with “culture” for “cultures”
as §6

[1] = test system: Streptococcus dysgalactiae; experiment: MIC, agar dilution, Streptococcus dysgalactiae; details: Streptococcus dysgalactiae; strain UC251; read-out: MIC
Method: as §1, §2, §3, §4, §5
as §1, with “Stock solutions” for “Stock solution”
as §2, with “mm.” for “mm,”
as §2, with “for Microbiology.” for “for Microbiology,”, “15×100 mm.” for “15×100 mm,”
as §3, with “culture” for “cultures”
as §6

Streptococcus agalactiae = experiment: MIC, agar dilution, Streptococcus agalactiae; details: Streptococcus agalactiae, read-out: MIC
Method: as §1, §2, §3, §4, §5
as §1, with “Stock solutions” for “Stock solution”
as §2, with “mm.” for “mm,”
as §2, with “for Microbiology.” for “for Microbiology,”, “15×100 mm.” for “15×100 mm,”
as §3, with “culture” for “cultures”
as §6

Salmonella choleraesuis = experiment: MIC, agar dilution, Salmonella choleraesuis; details: Salmonella enterica, read-out: MIC
Method: as §1, §2, §3, §4, §5
as §1, with “Stock solutions” for “Stock solution”
as §2, with “mm.” for “mm,”
as §2, with “for Microbiology.” for “for Microbiology,”, “15×100 mm.” for “15×100 mm,”
as §3, with “culture” for “cultures”
as §6

[2] = test system: Bordetella bronchiseptica; experiment: MIC, agar dilution, Bordetella bronchiseptica; details: Bordetella bronchiseptica; strain UC6313; read-out: MIC
Method: as §1, §2, §3, §4, §5
as §1, with “Stock solutions” for “Stock solution”
as §2, with “mm.” for “mm,”
as §2, with “for Microbiology.” for “for Microbiology,”, “15×100 mm.” for “15×100 mm,”
as §3, with “culture” for “cultures”
as §6

Streptococcus uberis = experiment: MIC, agar dilution, Streptococcus uberis; details: Streptococcus uberis, read-out: MIC
Method: as §1, §2, §3, §4, §5
as §1, with “Stock solutions” for “Stock solution”
as §2, with “mm.” for “mm,”
as §2, with “for Microbiology.” for “for Microbiology,”, “15×100 mm.” for “15×100 mm,”
as §3, with “culture” for “cultures”
as §6

Enterococcus faecium = experiment: MIC, agar dilution, Enterococcus faecium; details: Enterococcus faecium; strain UC241; read-out: MIC
Method: as §1, with “Stock solutions” for “Stock solution”
as §2, §3, §4, §5, §1
as §2, with “mm.” for “mm,”
as §2, with “for Microbiology.” for “for Microbiology,”, “15×100 mm.” for “15×100 mm,”
as §3, with “culture” for “cultures”
as §6

Streptococcus bovis = experiment: MIC, agar dilution, Streptococcus bovis; details: Streptococcus equinus; strain UC6281; read-out: MIC
Method: as §1, §2, §3, §4, §5
as §1, with “Stock solutions” for “Stock solution”
as §2, with “mm.” for “mm,”
as §2, with “for Microbiology.” for “for Microbiology,”, “15×100 mm.” for “15×100 mm,”
as §3, with “culture” for “cultures”
as §6

[3] = TYPHIMURIUM / UC6162, strain UC6162
[4] = TYPHIMURIUM / UC6164, strain UC6164
[5] = CHOLERAESUIS / UC6073, strain UC6073
[6] = CHOLERAESUIS / UC6077, strain UC6077

| MIC (Micrococcus luteus) | MIC (Corynebacterium pyogenes) | MIC (Staphylococcus aureus; strain UC6093) | MIC (Staphylococcus aureus; strain UC6097) | MIC (Staphylococcus aureus; strain UC9203) | MIC (Salmonella typhimurium; [3]) | MIC (Salmonella typhimurium; [4]) | MIC (Escherichia coli; strain UC3784) | MIC (Escherichia coli; strain UC6720) | MIC (Escherichia coli; strain UC9670) | MIC (Pseudomonas aeruginosa) | MIC (Streptococcus suis) | MIC (Pasteurella multocida) | MIC (Enterococcus faecalis) | MIC [1] | MIC (Streptococcus agalactiae; strain UC3947) | MIC (Streptococcus agalactiae; strain UC6892) | Compound | MIC (Pasteurella hemolytica; strain UC6531) | MIC (Pasteurella hemolytica; strain UC6532) | MIC (Pasteurella hemolytica; strain UC9582) | other results |
| --- | --- | --- | --- | --- | --- | --- | --- | --- | --- | --- | --- | --- | --- | --- | --- | --- | --- | --- | --- | --- | --- |
| ≤ 0.06 µg/mL | 0.25 µg/mL (≈ 0.429 µM) | 2 µg/mL (≈ 3.43 µM) | 2 µg/mL (≈ 3.43 µM) | 2 µg/mL (≈ 3.43 µM) | 4 µg/mL (≈ 6.86 µM) | 2 µg/mL (≈ 3.43 µM) | 1 µg/mL (≈ 1.72 µM) | 2 µg/mL (≈ 3.43 µM) | 1 µg/mL (≈ 1.72 µM) | > 32 µg/mL | ≤ 0.06 µg/mL | ≤ 0.06 µg/mL | > 32 µg/mL | ≤ 0.06 µg/mL | ≤ 0.06 µg/mL | ≤ 0.06 µg/mL | CO/N=C(\C(=O)N[C@@H]1C(=O)N2C(C(=O)O)=C(CSSc3ccc([N+](=O)[O-])cc3)CS[C@H]12)c1csc(N)n1 [Example 18] | 0.25 µg/mL (≈ 0.429 µM) | ≤ 0.06 µg/mL | ≤ 0.06 µg/mL | MIC (Salmonella choleraesuis; [5]): 2 µg/mL (≈ 3.43 µM); MIC (Salmonella choleraesuis; [6]): 4 µg/mL (≈ 6.86 µM); MIC [2]: > 32 µg/mL; MIC (Streptococcus uberis; strain UC3946): 0.25 µg/mL (≈ 0.429 µM); MIC (Streptococcus uberis; strain UC6159): 8 µg/mL (≈ 13.7 µM); MIC (Enterococcus faecium): > 32 µg/mL; MIC (Streptococcus bovis): ≤ 0.06 µg/mL |
| ≤ 0.06 µg/mL | 0.5 µg/mL (≈ 0.92 µM) | 1 µg/mL (≈ 1.84 µM) | 1 µg/mL (≈ 1.84 µM) | 1 µg/mL (≈ 1.84 µM) | 16 µg/mL (≈ 29.4 µM) | 16 µg/mL (≈ 29.4 µM) | 4 µg/mL (≈ 7.36 µM) | 8 µg/mL (≈ 14.7 µM) | 4 µg/mL (≈ 7.36 µM) | > 32 µg/mL | ≤ 0.06 µg/mL | ≤ 0.06 µg/mL | > 32 µg/mL | ≤ 0.06 µg/mL | ≤ 0.06 µg/mL | ≤ 0.06 µg/mL | CO/N=C(\C(=O)N[C@@H]1C(=O)N2C(C(=O)O)=C(CSSC3CCCCC3)CS[C@H]12)c1csc(N)n1 [Example 19] | 0.5 µg/mL (≈ 0.92 µM) | 0.5 µg/mL (≈ 0.92 µM) | 0.25 µg/mL (≈ 0.46 µM) | MIC (Salmonella choleraesuis; [5]): 8 µg/mL (≈ 14.7 µM); MIC (Salmonella choleraesuis; [6]): 16 µg/mL (≈ 29.4 µM); MIC [2]: > 32 µg/mL; MIC (Streptococcus uberis; strain UC3946): 0.13 µg/mL (≈ 0.239 µM); MIC (Streptococcus uberis; strain UC6159): 8 µg/mL (≈ 14.7 µM); MIC (Enterococcus faecium): > 32 µg/mL; MIC (Streptococcus bovis): ≤ 0.06 µg/mL |
